Holding throughout (assay type): cell-based
In assay [1] the test system is Enterococcus faecalis NCTC12201 strain (vancomycin-resistant Enterococcus: VRE). The assay can be described thus: MIC for Enterococcus faecalis NCTC12201 strain (VRE). The note with it: read-out: MIC Enterococcus faecalis NCTC 12201 (VRE).
Assay [2] has as its system Enterococcus faecalis 5038 strain. The assay can be described thus: MIC for Enterococcus faecalis 5038 strain. The note with it: read-out: MIC Enterococcus faecalis 5038.
Assay [3] deals with Staphylococcus aureus 209P strain. In words: MIC for Staphylococcus aureus 209P strain. The note with it: Staphylococcus aureus, read-out: MIC Straphyrococcus aureus 209P.
For assay [4], the system named is Escherichia coli BE1121 strain. The assay can be described thus: MIC for Escherichia coli BE1121 strain. The note with it: Escherichia coli, BE1121STRAIN, read-out: MIC Escherichia coli BE1121.
Assay [5] concerns Clostridium perfringens PB6K strain. The assay can be described thus: microbe, parasite or virus in culture. The note with it: Clostridium perfringens, PB6KSTRAIN, read-out: MIC Clostridium perfringens PB6K, PB6K strain; CD medium, 37° C. overnight, 10% CO2-containing anaerobic conditions.
Assay [6] deals with Clostridium difficile JCM1296 strain. In words: microbe, parasite or virus in culture. The note with it: Clostridioides difficile, JCM1296, read-out: MIC Clostridium difficile JCM1296.
In assay [7] the test system is Staphylococcus aureus Smith strain. The assay can be described thus: MIC for Staphylococcus aureus Smith strain. The note with it: read-out: MIC Straphyrococcus aureus Smith.
Assay [8] deals with Staphylococcus aureus MRSA No. 17 (methicillin-resistant Staphylococcus aureus: MRSA). The assay can be described thus: MIC for Staphylococcus aureus MRSA No. 17. The note with it: MRSA No. 17, regular bouillon medium, 37° C. overnight, turbidity, read-out: MIC Straphyrococcus aureus MRSA No. 17 (MRSA).
In assay [9] the test system is Escherichia coli K-12 strain. The assay can be described thus: MIC for Escherichia coli K-12 strain. The note with it: Escherichia coli, K12STRAIN, read-out: MIC Escherichia coli K12.
[10] abbreviates: NCTC12201 strain (VRE), Heart Infusion Broth medium, 37° C. overnight, turbidity.
Where [11] appears, read: 5038 strain, Heart Infusion Broth medium, 37° C. overnight, turbidity.
Where [12] appears, read: 209P strain, regular bouillon medium, 37° C. overnight, turbidity.
Setting [13] is: BE1121 strain, regular bouillon medium, 37° C. overnight, turbidity.
Where [14] appears, read: Smith strain, regular bouillon medium, 37° C. overnight, turbidity.
The mark [15] stands for this setting: K-12 strain, regular bouillon medium, 37° C. overnight, turbidity.

Molecules are shown by their SMILES. Values after ≈ are worked out from the molar mass of the structure shown. Read-outs that look alike come from different tables or passages of the source.

For `CCCCC1CCC(C(O)=C2C(=O)N(C(=O)c3ccccc3)c3ccccc32)CC1` (stereo not drawn) [A014, N-benzoyl-3-(4-butylcyclohexylcarbonyl)-2-oxyindole], the MIC in assay [1] (setting [10]) was 0.5 µg/mL (≈ 1.24 µM); in assay [2] (setting [11]), 1 µg/mL (≈ 2.48 µM); in assay [3] (setting [12]), 2 µg/mL (≈ 4.96 µM); in assay [4] (setting [13]), 128 µg/mL (≈ 317 µM); in assay [5] it was 8 µg/mL (≈ 19.8 µM); in assay [6], 4 µg/mL (≈ 9.91 µM). Moreover, the MIC in assay [7] (setting [14]) was found to be 1 µg/mL (≈ 2.48 µM); in assay [8], 4 µg/mL (≈ 9.91 µM); in assay [9] (setting [15]) it was 128 µg/mL (≈ 317 µM).
With `CCCCNC(=O)N1C(=O)C(=C(O)C2CCC(CCCC)CC2)c2ccccc21` (stereo not drawn) [A015, N-(butylaminocarbonyl)-3-(4-butylcyclohexylcarbonyl)-2-oxyindole], the MIC is 8 µg/mL (≈ 20.1 µM) in assay [1] (setting [10]); 8 µg/mL (≈ 20.1 µM) in assay [2] (setting [11]); 256 µg/mL (≈ 642 µM) in assay [3] (setting [12]); 256 µg/mL (≈ 642 µM) in assay [4] (setting [13]); 8 µg/mL (≈ 20.1 µM) in assay [5]; 4 µg/mL (≈ 10 µM) in assay [6]. Moreover, the MIC in [7] (setting [14]), in [8] and in [9] (setting [15]) was 256 µg/mL (≈ 642 µM) throughout.
With `CCCCC1CCC(C(O)=C2C(=O)N(C(=O)Nc3ccccc3)c3ccccc32)CC1` (stereo not drawn) [A016, N-(phenylaminocarbonyl)-3-(4-butylcyclohexylcarbonyl)-2-oxyindole], the MIC in [1] (setting [10]) was 0.5 µg/mL (≈ 1.19 µM); in assay [2] (setting [11]), 1 µg/mL (≈ 2.39 µM); in assay [3] (setting [12]) it was 128 µg/mL (≈ 306 µM); in assay [4] (setting [13]), 256 µg/mL (≈ 612 µM); in assay [5] it was 4 µg/mL (≈ 9.56 µM); in assay [6] it was 0.25 µg/mL (≈ 0.597 µM). Besides, the MIC in assay [7] (setting [14]) stood at 4 µg/mL (≈ 9.56 µM); in assay [8], 256 µg/mL (≈ 612 µM); in [9] (setting [15]) it was 256 µg/mL (≈ 612 µM).
As for `CCCCCCCCCCOCC(O)=C1C(=O)N(C(C)=O)c2cc(Cl)ccc21` [A017, N-acetyl-3-decyloxyacetyl-6-chloro-2-oxyindole], the MIC in assay [1] is under 0.125 µg/mL; in [2] (5038STRAIN) it was under 0.125 µg/mL; in assay [3] (setting [12]) it was 128 µg/mL (≈ 314 µM); in [4] (setting [13]), 128 µg/mL (≈ 314 µM); in assay [5], under 0.125 µg/mL; in assay [6], under 0.125 µg/mL. In addition, the figures for the MIC in assay [7], in assay [8] and in assay [9] (setting [15]) were under 0.125 µg/mL, 16 µg/mL (≈ 39.2 µM) and 128 µg/mL (≈ 314 µM), respectively.
As for `CCCCCCCCCCOC(C)C(O)=C1C(=O)N(C(C)=O)c2ccccc21` (stereo not drawn) [A018, N-acetyl-3-(2-decyloxypropionyl)-2-oxyindole], the MIC was 0.5 µg/mL (≈ 1.29 µM) in assay [1] (setting [10]); 0.5 µg/mL (≈ 1.29 µM) in [2] (setting [11]); 64 µg/mL (≈ 165 µM) in [3] (209P); under 0.125 µg/mL in assay [4]; 256 µg/mL (≈ 661 µM) in assay [5]; 256 µg/mL (≈ 661 µM) in assay [6]. For the same molecule, the values for the MIC in assay [7] (setting [14]), in assay [8] and in assay [9] were 0.5 µg/mL (≈ 1.29 µM), 8 µg/mL (≈ 20.6 µM) and 256 µg/mL (≈ 661 µM), respectively.
As to `CCCCCCCCCCOCC(O)=C1C(=O)N(C(=O)Nc2ccccc2)c2ccccc21` [A019, N-(phenylaminocarbonyl)-3-decyloxyacetyl-2-oxyindole], the MIC was 4 µg/mL (≈ 8.88 µM) in [1] (setting [10]); 1 µg/mL (≈ 2.22 µM) in assay [2] (setting [11]); 256 µg/mL (≈ 568 µM) in assay [3] (setting [12]); 128 µg/mL (≈ 284 µM) in assay [4] (setting [13]); 2 µg/mL (≈ 4.44 µM) in assay [5]; 0.5 µg/mL (≈ 1.11 µM) in [6]. The MIC in assay [7] (setting [14]) was found to be 4 µg/mL (≈ 8.88 µM); in [8], 256 µg/mL (≈ 568 µM); in [9] (setting [15]), 256 µg/mL (≈ 568 µM).
Turning to `CCCCCCCCCCOC(C)C(O)=C1C(=O)N(C(=O)NCCCC)c2ccccc21` (stereo not drawn) [A020, N-(butylaminocarbonyl)-3-(2-decyloxypropionyl)-2-oxyindole], the MIC in assay [1] (setting [10]) came out at 1 µg/mL (≈ 2.25 µM); in assay [2] (setting [11]), 0.5 µg/mL (≈ 1.12 µM); in [3] (setting [12]), 256 µg/mL (≈ 576 µM); in assay [4] (setting [13]), 256 µg/mL (≈ 576 µM); in assay [5] it was 4 µg/mL (≈ 9 µM); in assay [6], 0.5 µg/mL (≈ 1.12 µM). For the same molecule, the MIC in [7] (setting [14]) was determined as 1 µg/mL (≈ 2.25 µM); in assay [8] it was 256 µg/mL (≈ 576 µM); in [9] (setting [15]), 256 µg/mL (≈ 576 µM).
For `CCCCCCCCCCOC(C)C(O)=C1C(=O)N(C(=O)Nc2ccccc2)c2ccccc21` (stereo not drawn) [A021, N-(phenylaminocarbonyl)-3-(2-decyloxypropionyl)-2-oxyindole], the MIC is 0.5 µg/mL (≈ 1.08 µM) in [1] (setting [10]); 0.5 µg/mL (≈ 1.08 µM) in assay [2] (setting [11]); 128 µg/mL (≈ 276 µM) in [3] (setting [12]); 256 µg/mL (≈ 551 µM) in assay [4] (setting [13]); 2 µg/mL (≈ 4.3 µM) in [5]; 1 µg/mL (≈ 2.15 µM) in [6]. The MIC in assay [7] (setting [14]) came out at 0.5 µg/mL (≈ 1.08 µM); in [8], 256 µg/mL (≈ 551 µM); in assay [9] (setting [15]) it was 256 µg/mL (≈ 551 µM).

These data come from patent US9512075B2 (OKAYAMA UNIVERSITY, priority 2012, dated 2016).
